These results are taken from patent publication US20230174608A1, “Polypeptide Derivative Having Dual Receptor Agonistic Action and Use Thereof” (TIANJIN INSTITUTE OF PHARMACEUTICAL RESEARCH CO., LTD., priority 2020, published 2023).

One assay concerns the target T1, GLP-1R (Homo sapiens, UniProt P43220).
T1 construct: expressed in transfected cells
As to the kind of experiment: GLP-1 receptor-mediated cAMP production in vitro. It counts as cell-based. The note with it: HEK293 cell line stably expressing GLP-1R. On the procedure: (§1) HEK293 cell line stably expressing GLP-1R or GCGR was used for screening GLP-1R and GCGR agonist.
(§2) Preparation of test sample: each compound was prepared into 100 μM stock solution, and then gradually diluted to working concentrations of 1 μM, 100 nM, 10 nM, 1 nM, 10^−1 nM, 10^−2 nM, 10^−3 nM, and H2O.
(§3) 1) Each compound to be tested was mixed with a serum-free medium (containing 0.1% BSA and 0.5 mM IBMX) to obtain a solution at a concentration 2 times the working concentration.
(§4) 2) The cells were digested, suspended in a serum-free medium (containing 0.5 mM IBMX), counted, and placed in a 384-well plate at a density of 1,000 cells/5 μL/well, then 5 μL of the testing compound was added, and the plate was placed in dark for reaction for 30 min.
(§5) 3) After the reaction was completed, a substrate for detecting cAMP was added, and the plate was placed in dark for reaction at the room temperature for 60 min.
(§6) 4) After the reaction was completed, the plate was placed on the Envision2104 multifunctional microplate reader for detection, and the ratio of optical density (OD) values at 665 nm and 615 nm were read out.
(In general: Cyclic AMP is a second messenger, typically raised through Gs and lowered through Gi signalling.)

The next assay addresses T2, GCGR (Homo sapiens, UniProt P47871).
T2 construct: expressed in transfected cells
Description: GC receptor-mediated cAMP production in vitro. It counts as cell-based. The note with it: HEK293 cell line stably expressing GCGR. On the procedure: as §1, §2, §3, §4, §5, §6

The subject of assay [1] is glucose loaded normal mice. Description: Glucose loading test on normal mice after single administration. It counts as in vivo, Kunming mice. On the procedure:
The hypoglycemic action of each compound of Example 1 was assessed by a glucose loading test on normal mice after single administration.
Method: Kunming mice (male, with a weight of 20-22 g) were acclimated in a barrier environment animal room for 3 days, divided into a blank control group, a model control group, a positive control group, and test compound groups, 5 mice in each group, and fasted for 6 h. Saline was administered to each mouse in the blank control group and the model control group, the compounds and a positive control drug were respectively administered to each mouse in the test compound groups and the positive control group at a dose of 30 nmol/kg, and the positive control drug was semaglutide. 60 min after administration, glucose was intragastrically administered to each mouse in the model control group, the positive control group, and the test compound groups at a dose of 2.5 g/kg (0.01 mL·g^−1 weight), distilled water was administered to each mouse in the blank control group, and blood glucose levels were determined 30 min after glucose loading.

Assay [2] deals with diet-induced obesity (DIO) mice. As to the kind of experiment: Obese (DIO) model mice, 23 days of successive administration. It counts as in vivo, C57BL/6J Gpt mice. From the text: C57BL/6J Gpt mice (purchased from GemPharmatech (Jiangsu) Co., Ltd.) (6-8-week-old) were fed with H10060 high-fat diet (purchased from Beijing HFK Bioscience Co., Ltd.) to obtain diet-induced obesity (DIO) models, mice in a blank control group (n=5) were fed with standard diets, and all the mice were fed for 11 weeks after being purchased. One day before the first administration, the mice in the model group were randomly divided into 5 groups according to their weights (within a range of 39.5-49.5 g), i.e., a model control group, a positive control group, and test compound groups (dgc005, dgc016, and dgc020), respectively, 5 mice in each group, which were administered every day by subcutaneous injection. Saline was subcutaneously injected in the blank control group and the model control group every day. The administration was performed for 23 days. The positive control drug and the test compounds were administered at a dose of 30 nmol/kg, and the administration volume for each group was 0.005 mL/g weight. The mice were weighed before each administration, and 72-h food intake was weighed every three days. The mice fasted for 16 h before the last administration, fasting blood glucose levels were determined, blood was sampled from the orbital venous plexus to determine triglycerides and total cholesterol, and the liver was taken out for pathological section observation.
The liver of each C576L/6 mouse in the groups was fixed with 12% formaldehyde and prepared into a specimen, and the tissue block was repaired, dehydrated with graded alcohol, embedded in paraffin, stained with HE, and examined under a light microscope.

Where [3] appears, read: after 23 days of administration, 30 nmol/kg s.c. daily, n=5.

Each structure is given as a SMILES string. Where a SMILES comes first, the peptide text is derived from it.

T2 sequence (P47871 26-477, species assumed): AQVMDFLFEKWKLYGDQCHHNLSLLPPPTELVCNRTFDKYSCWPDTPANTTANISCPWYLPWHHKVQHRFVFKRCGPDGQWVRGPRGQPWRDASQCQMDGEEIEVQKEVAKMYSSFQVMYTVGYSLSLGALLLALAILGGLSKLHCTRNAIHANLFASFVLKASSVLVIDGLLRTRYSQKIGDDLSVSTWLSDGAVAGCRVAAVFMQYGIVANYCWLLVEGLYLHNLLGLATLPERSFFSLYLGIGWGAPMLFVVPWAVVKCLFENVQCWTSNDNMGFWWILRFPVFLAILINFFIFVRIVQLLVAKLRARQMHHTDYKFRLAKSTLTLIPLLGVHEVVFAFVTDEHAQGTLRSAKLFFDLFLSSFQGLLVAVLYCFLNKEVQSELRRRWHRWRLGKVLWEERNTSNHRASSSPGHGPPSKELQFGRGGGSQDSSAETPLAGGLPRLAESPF
T1 sequence (P43220 24-463, species assumed): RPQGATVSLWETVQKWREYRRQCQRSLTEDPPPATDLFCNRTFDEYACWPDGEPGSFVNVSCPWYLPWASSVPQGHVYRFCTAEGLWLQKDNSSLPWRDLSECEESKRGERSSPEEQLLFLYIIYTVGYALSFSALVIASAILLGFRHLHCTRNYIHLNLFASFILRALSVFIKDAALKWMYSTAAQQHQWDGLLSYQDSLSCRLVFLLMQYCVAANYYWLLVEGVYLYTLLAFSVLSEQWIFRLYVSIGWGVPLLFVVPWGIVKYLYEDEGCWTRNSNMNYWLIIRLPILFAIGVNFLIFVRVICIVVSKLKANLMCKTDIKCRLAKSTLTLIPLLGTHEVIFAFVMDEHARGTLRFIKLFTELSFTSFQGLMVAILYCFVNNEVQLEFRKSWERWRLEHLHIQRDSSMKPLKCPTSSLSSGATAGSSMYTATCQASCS

As usually defined, the EC50 is the concentration needed to bring the measured effect to its halfway point. Read a high EC50 as lower potency in that assay. For the compound `CCCCCCCCCCCCCCCC(=O)N[C@@H](CCC(=O)N[C@@H](CCC(=O)NCCCC[C@H](NC(=O)[C@H](C)NC(=O)[C@H](C)NC(=O)[C@H](CCCNC(=N)N)NC(=O)[C@H](CCC(=O)O)NC(=O)[C@H](CCC(=O)O)NC(=O)[C@H](CC(C)C)NC(=O)[C@H](Cc1ccc(O)cc1)NC(=O)[C@H](CCCCN)NC(=O)[C@H](CO)NC(=O)[C@H](Cc1ccc(O)cc1)NC(=O)[C@H](CC(=O)O)NC(=O)[C@H](CO)NC(=O)[C@@H](NC(=O)[C@H](Cc1ccccc1)NC(=O)[C@@H](NC(=O)CNC(=O)[C@H](CCC(N)=O)NC(=O)C(C)(C)NC(=O)[C@@H](N)Cc1c[nH]cn1)[C@@H](C)O)[C@@H](C)O)C(=O)N[C@@H](CCC(=O)O)C(=O)N[C@@H](Cc1ccccc1)C(=O)N[C@H](C(=O)N[C@@H](C)C(=O)N[C@@H](Cc1c[nH]c2ccccc12)C(=O)N[C@@H](CC(C)C)C(=O)N[C@@H](CCC(=O)O)C(=O)NCC(=O)N[C@@H](CCC(=O)O)C(=O)NCC(N)=O)[C@@H](C)CC)C(=O)O)C(=O)O` [dgc020] (HELM PEPTIDE1{H.[Aib].Q.G.T.F.T.S.D.Y.S.K.Y.L.E.E.R.A.A.K.E.F.I.A.W.L.E.G.E.G.[am]}|PEPTIDE2{[CCCCCCCCCCCCCCCC(=O)[*:2]].[gGlu].[gGlu]}$PEPTIDE1,PEPTIDE2,20:R3-3:R2$$$V2.0; N-terminus assumed), the EC50 on GLP-1R came out at 1.51 nM; at GCGR, 0.883 nM. In assay [1] (30 nmol/kg single dose, after glucose loading, versus model control group), the “Blood glucose reduction rate (%)” value is on record as 42.24%. The “Blood glucose level after glucose loading” value in assay [1] (30 nmol/kg single dose, glucose 2.5 g/kg intragastric 60 min after administration, measured 30 min after loading, n=5) is listed as 9.82 ± 2.06 mmol/L. Moreover, the “Fasting blood glucose level” value in assay [1] (normal mice fasted 6 h, 30 nmol/kg group, n=5) was determined as 4.24 ± 0.63 mmol/L. Besides, the “Fasting blood glucose (mmol/L) before the last administration” value in assay [2] (30 nmol/kg s.c. daily, 23 days, fasted 16 h, n=5) is recorded as 4.78 ± 0.46 mmol/L. In addition, the Weight decreasing rate in assay [2] (30 nmol/kg s.c. every day, without fasting before the last administration compared to day 1) came to 25.0%. The “Examination of liver pathological section” value in assay [2] (23 days, 30 nmol/kg s.c. daily, HE stain, 2 animals) was “no obvious pathological changes are seen in portal areas and interstitium”. In assay [2] (setting [3]), the “TC (total cholesterol)” value is reported as 3.62 ± 0.84 mmol/L. Also, the “TG (triglycerides)” value in assay [2] (setting [3]) is on record as 0.88 ± 0.28^Δ mmol/L. The 72-h food intake in assay [2] (day 4 of administration, 30 nmol/kg s.c. daily) came to 3.50 g/mouse; in assay [2] (day 7 of administration, 30 nmol/kg s.c. daily), 4.50 g/mouse; in assay [2] (day 10 of administration, 30 nmol/kg s.c. daily), 5.70 g/mouse; in assay [2] (day 13 of administration, 30 nmol/kg s.c. daily) it was 5.50 g/mouse.
